Data: ChEMBL document CHEMBL3217590, “Discovery of a new class of dithiocarbamates and rhodanine scaffolds as potent antifungal agents: synthesis, biology and molecular docking” (Medchemcomm, 2012)
Converted amounts (≈) assume the structure as drawn.

Legend:
[1] = system: Trichophyton mentagrophytes; experiment: Antifungal activity against Trichophyton mentagrophytes after 72 to 96 hrs by broth microdilution technique; assay type: functional
Cryptococcus neoformans = experiment: Antifungal activity against Cryptococcus neoformans after 24 to 48 hrs by broth microdilution technique; assay type: functional
Aspergillus fumigatus = experiment: Antifungal activity against Aspergillus fumigatus after 72 to 96 hrs by broth microdilution technique; assay type: functional
Sporothrix schenckii = experiment: Antifungal activity against Sporothrix schenckii after 72 to 96 hrs by broth microdilution technique; assay type: functional
Candida albicans [2] = experiment: Antifungal activity against Candida albicans after 24 to 48 hrs by broth microdilution technique; assay type: functional
Candida parapsilosis = experiment: Antifungal activity against Candida parapsilosis ATCC22019 after 24 to 48 hrs by broth microdilution technique; assay type: functional; conditions: Lodderomyces parapsilosis
Candida albicans [3] = experiment: Anticandidal activity against Candida albicans ATCC-MYA 2950 after 24 to 48 hrs by broth microdilution technique; assay type: functional
L929 [4] = experiment: Cytotoxicity against mouse L929 cells assessed as morphological changes up to 3.12 ug/ml after 24 hrs by giemsa staining based phase contrast microscopy; assay type: cell-based; conditions: l929, 24 h
Candida albicans [5] = experiment: Anticandidal activity against Candida albicans ATCC750 after 24 to 48 hrs by broth microdilution technique; assay type: functional
Candida albicans [6] = experiment: Anticandidal activity against Candida albicans ATCC14053 after 24 to 48 hrs by broth microdilution technique; assay type: functional
L929 [7] = experiment: Cytotoxicity against mouse L929 cells assessed as decline in cell survival at 12.5 to 50 ug/ml after 24 hrs by spectrophotometric analysis; assay type: cell-based; conditions: l929, 24 h
Candida albicans [8] = experiment: Ratio of fluconazole MIC to compound MIC against amphotericin-B resistant Candida albicans after 24 to 48 hrs by broth microdilution technique; assay type: functional
Candida albicans [9] = experiment: Anticandidal activity against Candida albicans ATCC10231 after 24 to 48 hrs by broth microdilution technique; assay type: functional
Candida albicans [10] = experiment: Anticandidal activity against Candida albicans isolated from patient after 24 to 48 hrs by broth microdilution technique; assay type: functional
Candida albicans [11] = experiment: Anticandidal activity against Candida albicans MTCC183 after 24 to 48 hrs by broth microdilution technique; assay type: functional
Candida albicans [12] = experiment: Anticandidal activity against amphotericin-B resistant Candida albicans after 24 to 48 hrs by broth microdilution technique; assay type: functional
Candida albicans [13] = experiment: Anticandidal activity against Candida albicans CDRI after 24 to 48 hrs by broth microdilution technique; assay type: functional

Row | Compound | MIC [1] [mg/L] | MIC (Cryptococcus neoformans) [mg/L] | MIC (Aspergillus fumigatus) [mg/L] | MIC (Sporothrix schenckii) [mg/L] | MIC (Candida albicans [2]) [mg/L] | MIC (Candida parapsilosis) [mg/L] | MIC (Candida albicans [3]) [mg/L] | Activity (L929 [4]) | MIC (Candida albicans [5]) [mg/L] | MIC (Candida albicans [6]) [mg/L] | Activity (L929 [7]) | Ratio (Candida albicans [8]) | MIC (Candida albicans [9]) [mg/L] | MIC (Candida albicans [10]) [mg/L] | MIC (Candida albicans [11]) [mg/L] | MIC (Candida albicans [12]) [mg/L] | MIC (Candida albicans [13]) [mg/L]
1 | COc1ccc(/C=C2\SC(=S)N(Cc3ccncc3)C2=O)cc1 | > 50 | > 50 | > 50 | > 50 | 50 (≈ 146 µM) | 50 (≈ 146 µM) | – | – | – | – | – | – | – | – | – | – | –
2 | COc1ccc(/C=C2\SC(=S)N(Cc3ccncc3)C2=O)cc1OC | > 50 | 50 (≈ 134 µM) | > 50 | > 50 | 25 (≈ 67.1 µM) | 25 (≈ 67.1 µM) | – | – | – | – | – | – | – | – | – | – | –
3 | O=C1/C(=C/c2ccncc2)SC(=S)N1Cc1ccncc1 | 3.12 (≈ 9.96 µM) | 1.56 (≈ 4.98 µM) | 25 (≈ 79.8 µM) | 3.12 (≈ 9.96 µM) | 1.56 (≈ 4.98 µM) | 1.56 (≈ 4.98 µM) | 1.56 (≈ 4.98 µM) | Non-toxic | 6.25 (≈ 19.9 µM) | 6.25 (≈ 19.9 µM) | Toxic | 2 | 1.56 (≈ 4.98 µM) | 3.12 (≈ 9.96 µM) | 0.78 (≈ 2.49 µM) | 3.12 (≈ 9.96 µM) | 3.12 (≈ 9.96 µM)
4 | O=C1/C(=C/c2cccnc2)SC(=S)N1Cc1ccncc1 | 6.25 (≈ 19.9 µM) | 3.12 (≈ 9.96 µM) | 25 (≈ 79.8 µM) | 1.56 (≈ 4.98 µM) | 1.56 (≈ 4.98 µM) | 6.25 (≈ 19.9 µM) | 1.56 (≈ 4.98 µM) | – | 3.12 (≈ 9.96 µM) | 0.78 (≈ 2.49 µM) | – | 1 | 3.12 (≈ 9.96 µM) | 3.12 (≈ 9.96 µM) | 0.78 (≈ 2.49 µM) | 6.25 (≈ 19.9 µM) | 1.56 (≈ 4.98 µM)
5 | O=C1/C(=C/c2cc3c(cc2[N+](=O)[O-])OCO3)SC(=S)N1Cc1ccncc1 | 3.12 (≈ 7.77 µM) | 3.12 (≈ 7.77 µM) | > 50 | 1.56 (≈ 3.89 µM) | 0.78 (≈ 1.94 µM) | 3.12 (≈ 7.77 µM) | 1.56 (≈ 3.89 µM) | Non-toxic | 6.25 (≈ 15.6 µM) | 1.56 (≈ 3.89 µM) | Toxic | – | 3.12 (≈ 7.77 µM) | 1.56 (≈ 3.89 µM) | 3.12 (≈ 7.77 µM) | 12.5 (≈ 31.1 µM) | 3.12 (≈ 7.77 µM)
6 | O=C1/C(=C/c2ccco2)SC(=S)N1Cc1ccncc1 | 12.5 (≈ 41.3 µM) | 25 (≈ 82.7 µM) | > 50 | 3.12 (≈ 10.3 µM) | 3.12 (≈ 10.3 µM) | 50 (≈ 165 µM) | 6.25 (≈ 20.7 µM) | Non-toxic | – | 1.56 (≈ 5.16 µM) | Toxic | 1 | – | – | 3.12 (≈ 10.3 µM) | 6.25 (≈ 20.7 µM) | 25 (≈ 82.7 µM)
7 | O=C1/C(=C/c2cccc3ccccc23)SC(=S)N1Cc1ccncc1 | 25 (≈ 69 µM) | 50 (≈ 138 µM) | > 50 | 12.5 (≈ 34.5 µM) | 25 (≈ 69 µM) | 50 (≈ 138 µM) | – | – | – | – | – | – | – | – | – | – | –
8 | O=C1/C(=C/c2ccc(/C=C3\SC(=S)N(Cc4ccncc4)C3=O)cc2)SC(=S)N1Cc1ccncc1 | > 50 | > 50 | > 50 | > 50 | > 50 | > 50 | – | – | – | – | – | – | – | – | – | – | –
9 | O=C1/C(=C/c2ccc(OCCOc3ccc(/C=C4\SC(=S)N(Cc5ccncc5)C4=O)cc3)cc2)SC(=S)N1Cc1ccncc1 | > 50 | > 50 | > 50 | > 50 | > 50 | > 50 | – | – | – | – | – | – | – | – | – | – | –
10 | O=C1/C(=C/c2ccc(OCCCOc3ccc(/C=C4\SC(=S)N(Cc5ccncc5)C4=O)cc3)cc2)SC(=S)N1Cc1ccncc1 | > 50 | > 50 | > 50 | > 50 | > 50 | > 50 | – | – | – | – | – | – | – | – | – | – | –
11 | O=C1/C(=C/c2ccc(OCCCCOc3ccc(/C=C4\SC(=S)N(Cc5ccncc5)C4=O)cc3)cc2)SC(=S)N1Cc1ccncc1 | > 50 | > 50 | > 50 | > 50 | > 50 | > 50 | – | – | – | – | – | – | – | – | – | – | –
12 | O=C1/C(=C/c2ccc(OCCCCCOc3ccc(/C=C4\SC(=S)N(Cc5ccncc5)C4=O)cc3)cc2)SC(=S)N1Cc1ccncc1 | > 50 | > 50 | > 50 | > 50 | > 50 | > 50 | – | – | – | – | – | – | – | – | – | – | –
13 | Clc1ccccc1C(c1ccccc1)(c1ccccc1)n1ccnc1 [CLOTRIMAZOLE] | 2 (≈ 5.8 µM) | 0.25 (≈ 0.725 µM) | 2 (≈ 5.8 µM) | 4 (≈ 11.6 µM) | 0.25 (≈ 0.725 µM) | 0.5 (≈ 1.45 µM) | – | – | – | – | – | – | – | – | – | – | –
14 | OC(Cn1cncn1)(Cn1cncn1)c1ccc(F)cc1F [FLUCONAZOLE] | 16 (≈ 52.2 µM) | 2 (≈ 6.53 µM) | > 32 | 4 (≈ 13.1 µM) | 1 (≈ 3.27 µM) | 0.5 (≈ 1.63 µM) | 0.062 (≈ 0.202 µM) | – | 0.5 (≈ 1.63 µM) | 0.25 (≈ 0.816 µM) | – | – | 1 (≈ 3.27 µM) | 0.25 (≈ 0.816 µM) | 4 (≈ 13.1 µM) | 8 (≈ 26.1 µM) | 0.125 (≈ 0.408 µM)
